Test system: patient suffering from hemicrania continua and ulceritive colitis
Experiment: Clinical treatment of a patient with hemicrania continua: topical indomethacin patch, and prior oral indomethacin
Format: in vivo, human
Procedure: Typically, the symptom ameliorated by the subject methods is pain associated with the syndrome being treated. In many embodiments, the intensity of pain associated with the syndrome is at least reduced, if not eliminated. Reduction in pain intensity is evaluated according to the protocol described at pages 161-176, and particularly page 172, of “Guidelines for Controlled Trials of Drugs in Cluster Headache,” published by the International Headache Society Committee on Clinical Trials in Cluster Headache. The magnitude of reduction in pain intensity is generally at least about 10%, usually at least about 25% and more usually at least about 50%, where magnitude of reduction may be as high as 75%, 80%, 95% or higher, including a complete cessation of pain, as determined by the assay described above.
The topical formulation described in I, above, was employed to treat a patient suffering from hemicrania continua and ulceritive colitis. The patient suffered from a six-year history of constant right-sided hemicranial pain of mild to moderate severity. Superimposed exacerbations of more intense pain occurred twice weekly and would last up to twelve hours. These painful exacerbations were associated with ipsilateral ptosis, conjunctival injection and lacrimation.
The patient was then treated with the topical application of indomethacin described in I, above, by applying the topical application to the site of maximal pain, i.e. the right forehead and temple. […] The patient was then instructed to reapply the patch twice daily, at twelve hour intervals. […] This was a favorable result compared with other forms of treatment that the patient had previously employed, whereas despite appropriate therapy, the patient's other medical condition worsened in response to oral administration of indomethacin.

[1] = prior treatment, 25 mg, three times daily

SMILES: COc1ccc2c(c1)c(CC(=O)O)c(C)n2C(=O)c1ccc(Cl)cc1 [indomethacin, Indomethacin]
- effect on gastrointestinal symptoms (decreased dosage): continued to aggravate the gastrointestinal symptoms
- effect on headache syndrome (decreased dosage): did not abolish the headache syndrome
- effect on pain [1]: complete resolution of pain
- effect on patient's ulcerative colitis [1]: significant worsening

— US20020143047A1, “Methods for treating indomethacin responsive headaches” (priority 2001, published 2002)
